Assay results taken from patent publication US20250075179A1, “METHODS FOR INCREASING VIRAL TRANSDUCTION OF CELLS” (Trustees of Dartmouth College, priority 2021, published 2025).

Experiments:
Assay type in all cases: cell-based
human naïve B cells [1] = test: LDL-R antibody enhancement of lentiviral transduction of B cells in feeder culture, GFP by flow cytometry; settings: 48 hour 5 μM Rosuvastatin
human naïve B cells [2] = test: Antibody class switching of naïve B cells after statin treatment, flow cytometry on Day 14; settings: 5 μM Rosuvastatin 48 hours, then culture to Day 14, versus PBS control, FIG. 3
Protocol: As noted above, statins and other agents should not substantially reduce target cell activity and function. One function of naïve B cells is the ability to engage in antibody class switching. […] Specifically, human naïve B cells were isolated and cultured as described above in Example 1. Cells were plated at a density of 1×10^5 cells B cells per 6 well with 1×10^4 feeder cells plated the previous day. The dual culture was grown in the media and cytokine mix described above with or without 5 μM Rosuvastatin. After 48 hours of treatment, media was changed and cells were allowed to continue growing in the media and fresh cytokines. Every 3-4 days half of the media was removed and replaced with fresh media and cytokines at 1× concentration. Cells were trypsinized and split 1:5 at day 7. Subclass of expressed antibody was assessed by flow cytometry on Day 14.

human naïve B cells [3] = test system: human naïve B cells

CC(C)c1nc(N(C)S(C)(=O)=O)nc(-c2ccc(F)cc2)c1/C=C/[C@@H](O)C[C@@H](O)CC(=O)O [rosuvastatin]
Median Fluorescence Intensity (human naïve B cells [1]; GFP+ virus, feeder culture + 250 ng/ml IL-2, no LDL-R antibody): 9.5
Median Fluorescence Intensity (human naïve B cells [1]; GFP+ virus, feeder culture + 250 ng/ml IL-2, with anti-mouse LDL-R antibody 2 μg/mL): 10
Median Fluorescence Intensity (human naïve B cells [1]; GFP− virus (control virus), feeder culture + 250 ng/ml IL-2, no LDL-R antibody): 3
percent of B cells expressing the measured subclasses of antibody (class switching) (human naïve B cells [2]): did not alter
B cell transduction percentage, some replicates (human naïve B cells [3]): exceeding 90%
GFP expression compared to B cells not treated with the statin or not transduced (human naïve B cells [3]): substantially higher
average B cell transduction percentage as measured by GFP expression, between technical replicates (human naïve B cells [3]): 80%
transduction relative to B cells not incubated with rosuvastatin (human naïve B cells [3]): about 100 fold
